Where two headings read alike, the source gives them in different places.
Key:
[1] = tested on: Root-knot nematode; settings: in vivo
[2] = target: bovine cholinesterase (Bos taurus, UniProt P23795); assay: biochemical; format: biochemical
[3] = tested on: Southern army worm; settings: in vivo; for Southern Army Worm Mortality, %: southern armyworm
[4] = in vivo; settings: rat, po
[5] = tested on: Mexican bean beetle; assay: whole plant or invertebrate; settings: Epilachna varivestis; for mortality at 50 ppm / mortality at 100 ppm: read-out: Mexican Bean Beetle Larvae Mortality, %
[6] = tested on: House fly; assay: whole plant or invertebrate; settings: Musca domestica, 48 h; for mortality at 20 ppm: read-out: House Fly Spray Mortality, % (at 20 ppm); for mortality at 250 ppm: read-out: Mortality, % - House Flies
[7] = tested on: Corn rootworm larvae; assay: whole plant or invertebrate; settings: soil, 120 h, read-out: Corn Rootworm Larvae Mortality, % (at 2.5 ppm)
[8] = tested on: Spider mites; assay: Mite, Systemic; format: in vivo, two-spotted mite; settings: Tetranychus urticae, read-out: Mortality, % - Spider Mites Systemic
Procedure: (§1) In the insecticidal and miticidal tests, the experimental compounds were tested as aqueous emulsions. These emulsions were prepared by dissolving the compound in acetone and dispersing it in distilled water with Triton X-100, an alkylaryl polyether alcohol derived by the reaction of i-octylphenol with ethylene oxide, to give spray emulsions containing the desired concentrations of the compound. These emulsions were then used in standard laboratory tests described below.
Mite, Systemic: Bean plants infested with the two-spotted mites were treated by applying 20 ml. of the formulated test chemical to the soil.

[9] = tested on: Bean aphids; assay: Aphid, Systemic; format: in vivo, bean aphid; settings: Aphis fabae, 48 h, read-out: Mortality, % - Bean Aphids Systemic
Procedure: as §1
Aphid, Systemic: Nasturtium plants infested with the bean aphid were treated by applying 20 ml. of the formulated test chemical to the soil. The degree of aphid control was rated after 2 days.

[10] = tested on: Lone Star Ticks; assay: Animal systemic insecticide test in guinea pigs, lone star tick nymphs; format: in vivo, lone star tick (host: guinea pig); settings: Cavia porcellus, 24 h, Table XI, read-out: Lowest Dosage (mg/kg) Causing Complete Kill of Nymphs of Lone Star Ticks
Procedure: (§2) The experimental compounds, formulated as 5% solutions in Tween 20, were administered orally and subcutaneously to guonea pigs which have been artificially infested with nymphs of the lone star tick at 48 hours before treatment, larvae of the secondary screw worm and of the black blow fly at 24 hours before treatment. Mortality was observed 24 hours after the treatment. For the details of the techniques, reference is made to the publications of R. O. Drummond in the Journal of Economic Entomology, particularly in Vol. 60, pages 733-737 in 1967.

[11] = tested on: Black Blow Flies; assay: Animal systemic insecticide test in guinea pigs, black blow fly larvae; format: in vivo, black blow fly (host: guinea pig); settings: Calliphoridae, in Cavia porcellus, 24 h, Table XI, read-out: Lowest Dosage (mg/kg) Causing Complete Kill of Larvae of Black Blow Flies
Procedure: as §2

[12] = tested on: Secondary Screw Worms; assay: Animal systemic insecticide test in guinea pigs, secondary screw worm larvae; format: in vivo, secondary screw worm (host: guinea pig); settings: Cavia porcellus, 24 h, Table XI, read-out: Lowest Dosage (mg/kg) Causing Complete Kill of Larvae of Secondary Screw Worms
Procedure: as §2

[13] = tested on: Spider mites; settings: two-spotted spider mite, in vivo, 48 h
[14] = tested on: Bean aphids; settings: bean aphid, in vivo, 48 h
[15] = tested on: Southern army worm; assay: whole plant or invertebrate; settings: Spodoptera eridania; for mortality at 250 ppm: read-out: Mortality, % - Southern ArmyWorm; for mortality at 50 ppm / mortality at 100 ppm: read-out: Mortality of Southern Armyworm, %
[16] = tested on: Spider mites; assay: whole plant or invertebrate; settings: Tetranychus urticae, 48 h, read-out: Mortality, % - Spider Mites Contact
[17] = tested on: Bean aphids; assay: whole plant or invertebrate; settings: Aphis fabae, 48 h, read-out: Mortality, % - Bean Aphids Contact
[18] = Thermal stability of products (GC / nmr observation); format: physicochemical; settings: for thermal stability: general statement
Description: The corresponding primary alkyl derivatives such as the S'-n-propyl compound are stable under similar conditions.
The ethyl sulfinylmethyl product was unstable at room temperature.

[19] = tested on: powdery mildew fungus (Erysiphe Polygoni); assay: Bean Powdery Mildew eradicant test; format: in vivo; settings: Table III; 200 ppm
[20] = tested on: bean rust fungus (Uromyces Phaseoli); assay: Bean Rust eradicant test; format: in vivo; settings: Table III; 200 ppm
Procedure: In these tests, the experimental compounds were tested in aqueous emulsions, prepared in the same manner as was previously described above with respect to the insecticidal and miticidal tests.
Pinto bean plants with fully expanded primary leaves were inoculated with spores of the bean rust fungus (Uromyces Phaseoli) and incubated for 24 hours. The test were then carried out as described above for Bean Powdery Mildew.

[21] = tested on: bean rust fungus (Uromyces Phaseoli); assay: Bean Rust systemic eradicant test; format: in vivo; settings: Table III; 200 ppm
Procedure: Pinto bean plants were inoculated 24 hours prior to use as above and the soil in the pot was then treated with 20 ml. of an emulsion of the test chemical. The rest of the test and the evaluation were then carried out an above for Bean Powdery Mildew.

[22] = tested on: Sclerotium; assay: Sclerotium soil fungicide test; format: in vivo; settings: Table III; 100 lb/acre
Procedure: Sterilized soil was inoculated with Solerotium and placed into a 4-ounce "Dixie cup", and drenched with 20 ml. of an emulsion of the test chemical. The cup was then incubated for 2 days at 70° F. Thereafter, the amount of mycelial growth on the soil surface was rated and the control by the chemical estimated accordingly.

[23] = tested on: Corn rootworm larvae; settings: in vivo, 120 h
[24] = tested on: Corn earworm; assay: Field control of corn earworm (Example 27); format: in vivo; settings: Table XV; 1 lbs/acre; untreated check 45
Description: Spring Gold sween corn was planted on March 21. Each treatment was made on a 48 ft. row and was replicated three times. Ratings represent the total counts from all three replicates. Except for insecticide treatment the plots were managed according to recommended farming practice for the area. Application of the experimental compositions at the 1 lb. active ingredient per acre were made and readings were made to determine the number of infested corn ears.

[25] = read-out: Mortality, % - Mexican Bean Beetle
[26] = read-out: Mortality, % - Mexican Bean Beetles

Chain of bovine cholinesterase (P23795-2 with tags, fused parts or gaps limits assumed): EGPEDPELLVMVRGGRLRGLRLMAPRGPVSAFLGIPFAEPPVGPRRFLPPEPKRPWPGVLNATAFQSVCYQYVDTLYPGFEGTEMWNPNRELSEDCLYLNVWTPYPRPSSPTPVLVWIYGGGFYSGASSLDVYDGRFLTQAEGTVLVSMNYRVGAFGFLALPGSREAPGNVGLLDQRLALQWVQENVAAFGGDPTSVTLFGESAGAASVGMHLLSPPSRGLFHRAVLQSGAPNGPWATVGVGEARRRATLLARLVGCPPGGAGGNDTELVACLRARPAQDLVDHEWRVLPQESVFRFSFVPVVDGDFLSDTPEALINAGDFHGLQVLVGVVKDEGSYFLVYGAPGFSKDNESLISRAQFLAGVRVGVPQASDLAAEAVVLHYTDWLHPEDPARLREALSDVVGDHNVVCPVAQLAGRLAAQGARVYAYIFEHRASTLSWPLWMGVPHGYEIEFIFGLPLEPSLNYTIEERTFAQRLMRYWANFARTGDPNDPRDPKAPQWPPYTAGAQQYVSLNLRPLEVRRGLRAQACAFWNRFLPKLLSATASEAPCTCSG

For `CCOP(=S)(OCC)SCCSCC` [Disyston, reference compound], the “Nematodes Rate, Control after 1-4 weeks (at 25#/acre)” value (“Nematodes Rate, Control” for short) [1] was 0, the IC50 [2] was 380 µM and the “Southern Army Worm Mortality, %” value [3] was 0%. It also gave an LD50 at 336 h [4] of 25 mg/kg, a mortality at 50 ppm [5] of 30% and a mortality at 20 ppm [6] of 100%. For the same compound, the mortality at 2.5 ppm [7] was 0%.

With `CCCSP(=O)(OCC)SCCSC` (stereo not drawn) [Example 1, O-Ethyl S-1-Propyl S'-2-Methylthioethyl Dithiophosphate] the mortality at 250 ppm [8] was 100%, the mortality at 250 ppm [9] was 95% and the “Nematode Control,% at 25 lb/acre” value [1] was 90%. For the same compound, the minimal effective dose ([10]; oral) was 50 mg/kg, the minimal effective dose ([10]; sc, subcutaneous) was 50 mg/kg and the minimal effective dose ([11]; oral) was 50 mg/kg. For the same compound, the minimal effective dose ([11]; sc, subcutaneous) was 50 mg/kg, the minimal effective dose ([12]; oral) was 50 mg/kg and the minimal effective dose ([12]; sc, subcutaneous) was 50 mg/kg. For the same compound, the “Mortality, % - Southern ArmyWorm” value [3] was 100%, the “Mortality, % - Spider Mites Contact” value [13] was 100% and the “Mortality, % - Bean Aphids Contact” value [14] was 100%. The LD50 at 336 h [4] was 46 mg/kg, the mortality at 250 ppm [15] was 100% and the mortality at 250 ppm [5, 25] was 100%. It also gave a mortality at 250 ppm [5, 26] of 100%, a mortality at 250 ppm [16] of 100% and a mortality at 250 ppm [17] of 100%. For the same compound, the mortality at 250 ppm [6] was 100%.

With `CCCSP(=O)(OCC)SCCSc1ccccc1` (stereo not drawn) [Example 4, O-Ethyl S-1-Propyl S-2-Phenylthioethyl Dithiophosphate] the mortality at 250 ppm [8] was 40%, the mortality at 250 ppm [9] was 20% and the minimal effective dose ([10]; oral) was greater than 100 mg/kg. It also gave a minimal effective dose ([10]; sc, subcutaneous) greater than 100 mg/kg, a minimal effective dose ([11]; oral) greater than 100 mg/kg and a minimal effective dose ([11]; sc, subcutaneous) greater than 100 mg/kg. It also gave a minimal effective dose ([12]; oral) greater than 100 mg/kg, a minimal effective dose ([12]; sc, subcutaneous) greater than 100 mg/kg and a mortality at 250 ppm [15] of 100%. For the same compound, the mortality at 250 ppm [5, 26] was 100%, the mortality at 250 ppm [16] was 100% and the mortality at 250 ppm [17] was 95%. It also gave a mortality at 250 ppm [6] of 95%.

With `CCCSP(=O)(OCC)SCC[S+](C)[O-]` (stereo not drawn) [Example 6, O-Ethyl S-1-Propyl S'-2-Methylsulfinylethyl Dithiophosphate] the mortality at 250 ppm [8] was 100%, the mortality at 250 ppm [9] was 100% and the “Nematode Control,% at 25 lb/acre” value [1] was 100%. It also gave a minimal effective dose ([10]; oral) of 50 mg/kg, a minimal effective dose ([10]; sc, subcutaneous) of 50 mg/kg and a minimal effective dose ([11]; oral) of 50 mg/kg. It also gave a minimal effective dose ([11]; sc, subcutaneous) of 50 mg/kg, a minimal effective dose ([12]; oral) of 100 mg/kg and a minimal effective dose ([12]; sc, subcutaneous) of 50 mg/kg. The LD50 at 336 h [4] was 46 mg/kg, the mortality at 250 ppm [15] was 100% and the mortality at 250 ppm [5, 25] was 100%. The mortality at 250 ppm [16] was 100% and the mortality at 250 ppm [17] was 100%.

In the case of `CCOP(=O)(SCCSCC)SC(C)(C)C` (stereo not drawn) [Example 10, O-Ethyl S-t-Butyl S'-2-Ethylthioethyl Dithiophosphate], the thermal stability [18] is reported as “thermally highly unstable”, the “thermal stability on gas chromatographic analysis” value ([18]; injector temperature of 200° C) is reported as “decomposed to yield isobutylene” and the mortality at 50 ppm [15] is reported as 0%. The mortality at 100 ppm [15] was 0%.

In the case of `CCCSP(=O)(OCC)SCSCC` (stereo not drawn) [Example 11, O-Ethyl S-1-Propyl S'-Ethylthiomethyl Dithiophosphate], the “Nematodes Rate, Control” value [1] is reported as 100, the IC50 [2] is reported as 2.7 µM and the “stability (nmr)” value ([18]; 60° C) is reported as “slowly decomposing”. For the same compound, the “Southern Army Worm Mortality, %” value [3] was 100%, the mortality at 100 ppm [5] was 100% and the mortality at 20 ppm [6] was 100%. It also gave a mortality at 2.5 ppm [7] of 100%.

With `CCOP(=O)(SCC)SCC(C)SCC` (stereo not drawn) [Example 29, O,S-Diethyl S'-2-Ethylthiopropyl Dithiophosphate] the “Pest Control, % - Nematode Control (25 lb/acre)” value [1] was 20%, the “Control of Foliar Fungi, % - Bean Mildew Eradicant” value [19] was 0% and the “Control of Foliar Fungi, % - Bean Rust Eradicant” value [20] was 0%. The “Control of Foliar Fungi, % - Bean Rust Systemic Eradicant” value [21] was 0%, the “Control of Sclerotium, %” value [22] was 0% and the “Pest Control, % - Corn Rootworm (0.25 ppm)” value [23] was 20%.

For `CCCSP(=O)(OCC)SCCSCC` (stereo not drawn) [Example 30, O-Ethyl 1-Propyl S'-2-Ethylthioethyl Dithiophosphate], the mortality at 250 ppm [8] was 100%, the mortality at 250 ppm [9] was 90% and the “Nematodes Rate, Control” value [1] was 100. The IC50 ([2]; read-out: Cholinesterase Inhibiting conc. LD50, Mole/Liter, 30 min) was 1.1 µM, the “Southern Army Worm Mortality, %” value [3] was 100% and the LD50 at 336 h [4] was 318 mg/kg. For the same compound, the mortality at 50 ppm [15] was 80%, the mortality at 100 ppm [15] was 100% and the mortality at 250 ppm [15] was 100%. The mortality at 50 ppm [5] was 100%, the mortality at 250 ppm [5, 26] was 100% and the mortality at 250 ppm [16] was 100%. For the same compound, the mortality at 250 ppm [17] was 100%, the mortality at 20 ppm [6] was 100% and the mortality at 250 ppm [6] was 100%. It also gave a mortality at 2.5 ppm [7] of 20%.

For `CCCSP(=O)(OCC)SCSc1ccc(Cl)cc1` (stereo not drawn) [Example 31, O-Ethyl S-1-Propyl S'-4-Chlorophenyllthiomethyl Dithiophosphate], the “Nematodes Rate, Control” value [1] was 100, the IC50 [2] was 0.0041 µM and the “Southern Army Worm Mortality, %” value [3] was 100%. The mortality at 100 ppm [5] was 100%, the mortality at 20 ppm [6] was 100% and the mortality at 2.5 ppm [7] was 0%.

For `CCOP(=S)(OCC)SCSCC` [Thimet, reference compound], the “Nematodes Rate, Control” value [1] was 0, the IC50 [2] was 31 µM and the “Southern Army Worm Mortality, %” value [3] was 0%. For the same compound, the mortality at 100 ppm [5] was 90%, the mortality at 20 ppm [6] was 90% and the mortality at 2.5 ppm [7] was 100%.

With `CCCSP(=O)(OCC)SCCSC` (stereo not drawn) [drawing 55] the “Number of Infested Corn Ears (150 Ears Sampled)” value (from here on “Number of Infested Corn Ears”) [24] was 2.

In the case of `CCCSP(=O)(OCC)SCC[S+](C)[O-]` (stereo not drawn) [drawing 56], the “Number of Infested Corn Ears” value [24] is reported as 0.

In the case of `CCCSP(=O)(OCC)SCC(C)SC` (stereo not drawn) [drawing 57], the “Number of Infested Corn Ears” value [24] is reported as 4.

For `CCOP(=O)(SCC(C)C)SC[S+]([O-])CC` (stereo not drawn) [ethylsulfinylmethyl ester, O-ethyl S-isobutyl S'-ethylsulfinylmethyl dithiophosphate], the thermal stability [18] was “thermal instability”.

Reference: patent publication US4075332A (priority 1976, dated 1978)
